From BindingDB's records for patent US12110286 (Cancer Research Technology, 2024)

Target: B-cell lymphoma 6 protein (Homo sapiens, UniProt P41182)
Experiment: HTRF In Vitro Assay
Procedure: The % inhibition at each concentration was calculated by normalising FRET ratio to the appropriate high (DMSO with all reagents) and low (DMSO without BCL6) controls.

IC50: 0.324 µM
SMILES: Cn1c(=O)n(CCC(C)(C)O)c2cc(Nc3nc(N4CCC(Cn5cccn5)CC4)ncc3Cl)ccc21 [US12110286, Example 35zb]
